Assay results from US11535630B2, “Apelin receptor (APJ) agonists and uses thereof” (Research Triangle Institute, priority 2015, dated 2022).
Where a name gives a salt, the structure may show the parent alone.

biological target: T1, apelin receptor (APJ) (Homo sapiens, UniProt P35414); assay: In vitro apelin agonist activity (methods of Giddings et al., Apelin-13 as positive control); format: cell-based; conditions: in vitro apelin agonist activity, methods of Giddings et al., Apelin-13 as positive control; read-out: EC50 (nM) Ave
T1 sequence (P35414 1-380): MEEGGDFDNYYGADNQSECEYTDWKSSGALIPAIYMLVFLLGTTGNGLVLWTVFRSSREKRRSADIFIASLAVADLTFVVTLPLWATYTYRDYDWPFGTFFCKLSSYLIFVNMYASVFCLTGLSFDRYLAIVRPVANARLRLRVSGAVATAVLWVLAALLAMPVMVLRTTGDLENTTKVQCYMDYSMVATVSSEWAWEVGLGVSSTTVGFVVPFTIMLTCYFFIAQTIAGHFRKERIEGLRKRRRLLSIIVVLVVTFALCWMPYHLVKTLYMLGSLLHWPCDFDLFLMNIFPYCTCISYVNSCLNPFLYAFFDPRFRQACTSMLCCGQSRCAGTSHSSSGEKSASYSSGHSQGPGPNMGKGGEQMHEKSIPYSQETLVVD
From the text: Characterization of the Apelin Agonist Activity of the Compounds
1:39-47, the contents of which are hereby incorporated by reference in its entirety. Using the methods described in Giddings et al. and Apelin-13 as a positive control.

SMILES | EC50 [nM]
COc1cccc(OC)c1-c1cc(C(=O)N[C@H](CC(=O)O)Cc2ccccc2)nn1C1CCCC1 [compound 401, (3S)-3-{[1-cyclopentyl-5-(2,6-dimethoxyphenyl)-1H-pyrazol-3-yl]formamido}-4-phenylbutanoic acid] | > 10000
O=C(O)C[C@H](COc1ccc(F)cc1)NC(=O)c1cc(-c2ccccc2C(F)(F)F)n(C2CCCC2)n1 [compound 545, (3R)-3-({1-cyclopentyl-5-[2-(trifluoromethyl)phenyl]-1H-pyrazol-3-yl}formamido)-4-(4-fluorophenoxy)butanoic acid] | 1230
O=C(O)C[C@@H](NC(=O)c1cc(-c2ccccc2C(F)(F)F)n(C2CCCC2)n1)C(=O)Nc1ccc(F)cc1 [compound 560, (3R)-3-({1-cyclopentyl-5-[2-(trifluoromethyl)phenyl]-1H-pyrazol-3-yl}formamido)-3-[(4-fluorophenyl)carbamoyl]propanoic acid] | 738
O=C(N[C@@H](CCN1C(=O)CCCC1=O)Cc1nnn[nH]1)c1cc(-c2ccccc2C(F)(F)F)n(C2CCCC2)n1 [compound 655, 1-cyclopentyl-N-[(2S)-4-(2,6-dioxopiperidin-1-yl)-1-(1H-1,2,3,4-tetrazol-5-yl)butan-2-yl]-5-[2-(trifluoromethyl)phenyl]-1H-pyrazole-3-carboxamide] | 66
COc1cccc(OC)c1-c1cc(C(=O)N[C@@H](CCN2CCCCC2)Cc2nnc(C)o2)nn1C1CCCC1 [compound 343, 1-cyclopentyl-5-(2,6-dimethoxyphenyl)-N-[(2S)-1-(5-methyl-1,3,4-oxadiazol-2-yl)-4-(piperidin-1-yl)butan-2-yl]-1H-pyrazole-3-carboxamide] | 1530
O=C(O)C[C@H](CN1CCCC(F)(F)C1)NC(=O)c1cc(-c2ccccc2C(F)(F)F)n(C2CCCC2)n1 [compound 519, (3R)-3-({1-cyclopentyl-5-[2-(trifluoromethyl)phenyl]-1H-pyrazol-3-yl]formamido)-4-(3,3-difluoropiperidin-1-yl)butanoic acid] | > 10000
CCN(CC)CC[C@@H](CC(=O)OC(C)(C)C)NC(=O)c1cc(-c2c(OC)cccc2OC)n(C2CCCC2)n1 [compound 305, tert-butyl (3S)-3-{[1-cyclopentyl-5-(2,6-dimethoxyphenyl)-1H-pyrazol-3-yl]formamido}-5-(diethylamino)pentanoate] | > 10000
C[C@@H](C[C@@H](CC(=O)O)NC(=O)c1cc(-c2ccccc2C(F)(F)F)n(C2CCCC2)n1)N1CCCC(F)(F)C1 [compound 576, (3S,5S)-3-({1-cyclopentyl-5-[2-(trifluoromethyl)phenyl]-1H-pyrazol-3-yl}formamido)-5-(3,3-difluoropiperidin-1-yl)hexanoic acid] | 1370
O=C(C[C@H](CCN1CCCC(F)(F)C1)NC(=O)c1cc(-c2ccccc2Cl)n(C2CCCC2)n1)Nc1nccs1 [compound 429, (3S)-3-{[5-(2-chlorophenyl)-1-cyclopentyl-1H-pyrazol-3-yl]formamido}-5-(3,3-difluoropiperidin-1-yl)-N-(1,3-thiazol-2-yl)pentanamide] | 6.1
O=C(C[C@H](CCN1CCCCC1)NC(=O)c1cc(-c2c(OCC(F)(F)F)cccc2OCC(F)(F)F)n(C2CCCC2)n1)NC1CCC1 [compound 353] | > 10000
C[C@@H](C[C@@H](CC(=O)O)NC(=O)c1cc(-c2ccccc2C(F)(F)F)n(C2CCCC2)n1)N1CCC(F)(F)C1 [compound 572, (3S,5S)-3-({1-cyclopentyl-5-[2-(trifluoromethyl)phenyl]-1H-pyrazol-3-yl}formamido)-5-(3,3-difluoropyrrolidin-1-yl)hexanoic acid] | 124
COc1cccc(OC)c1-c1cc(C(=O)N[C@@H](CC2CC2)C(=O)NC2CCC2)nn1C1CCCC1 [compound 376, (2S)-N-cyclobutyl-2-{[1-cyclopentyl-5-(2,6-dimethoxyphenyl)-1H-pyrazol-3-yl]formamido}-3-cyclopropylpropanamide] | > 10000
CC1(C)CC(F)(F)CN1CC[C@@H](CC(=O)O)NC(=O)c1cc(-c2ccccc2C(F)(F)F)n(C2CCCC2)n1 [compound 612, (3S)-3-({1-cyclopentyl-5-[2-(trifluoromethyl)phenyl]-1H-pyrazol-3-yl}formamido)-5-(4,4-difluoro-2,2-dimethylpyrrolidin-1-yl)pentanoic acid] | 231
COc1cccc(OC)c1-c1cc(C(=O)N[C@@H](CCNCc2ccncc2)CC(=O)OC(C)(C)C)nn1C1CCCC1 [compound 306, tert-butyl (3S)-3-{[1-cyclopentyl-5-(2,6-dimethoxyphenyl)-1H-pyrazol-3-yl]formamido}-5-[(pyridin-4-ylmethyl)amino]pentanoate] | > 10000
O=C(O)C[C@H](CC(=O)N1CCCC(F)(F)C1)NC(=O)c1cc(-c2ccccc2C(F)(F)F)n(C2CCCC2)n1 [compound 509, (3S)-3-({1-cyclopentyl-5-[2-(trifluoromethyl)phenyl]-1H-pyrazol-3-yl}formamido)-5-(3,3-difluoropiperidin-1-yl)-5-oxopentanoic acid] | 1060
O=C(C[C@H](CCN1CCCCC1)NC(=O)c1cc(-c2cscn2)n(C2CCCC2)n1)NC1CCC1 [compound 378, (3S)-N-cyclobutyl-3-{[1-cyclopentyl-5-(1,3-thiazol-4-yl)-1H-pyrazol-3-yl]formamido}-5-(piperidin-1-yl)pentanamide] | 9390
CCc1ccccc1-c1cc(C(=O)N[C@@H](CCN2CCCCC2)CC(=O)Nc2nccs2)nn1C1CCCC1 [compound 406, (3S)-3-{[1-cyclopentyl-5-(2-ethylphenyl)-1H-pyrazol-3-yl]formamido}-5-(piperidin-1-yl)-N-(1,3-thiazol-2-yl)pentanamide] | 22
O=C(N[C@@H](CCc1ccc(F)cc1)Cc1nnc[nH]1)c1cc(-c2ccccc2C(F)(F)F)n(C2CCCC2)n1 [compound 470, 1-cyclopentyl-N-[(2S)-4-(4-fluorophenyl)-1-(4H-1,2,4-triazol-3-yl)butan-2-yl]-5-[2-(trifluoromethyl)phenyl]-1H-pyrazole-3-carboxamide] | 435

Now from value to compound:

EC50 [nM] | SMILES
42 | CCc1ccccc1-c1cc(C(=O)N[C@@H](CCN2CCCCC2)CC(=O)O)nn1C1CCCC1 [compound 403, (3S)-3-{[1-cyclopentyl-5-(2-ethylphenyl)-1H-pyrazol-3-yl]formamido}-5-(piperidin-1-yl)pentanoic acid hydrochloride]
114 | COc1cccc(OC)c1-c1cc(C(=O)N[C@H](CC(=O)NC2CCC2)Cc2ccccc2)nn1CC(C)C [compound 321, (3S)-N-cyclobutyl-3-{[5-(2,6-dimethoxyphenyl)-1-(2-methylpropyl)-1H-pyrazol-3-yl]formamido}-4-phenylbutanamide]
134 | O=C(C[C@H](CCN1CCCC(F)(F)C1)NC(=O)c1cc(-c2ccccc2C(F)(F)F)n(C2CCCC2)n1)NS(=O)(=O)C(F)(F)F [compound 529, (3S)-3-({1-cyclopentyl-5-[2-(trifluoromethyl)phenyl]-1H-pyrazol-3-yl}formamido)-5-(3,3-difluoropiperidin-1-yl)-N-(trifluoromethane)sulfonylpentanamide]
1320 | O=C(C[C@H](CCN1CCCC(F)(F)C1)NC(=O)c1cc(-c2ccncc2Cl)n(C2CCCC2)n1)NC1CCC1 [compound 457, (3S)-3-{[5-(3-chloropyridin-4-yl)-1-cyclopentyl-1H-pyrazol-3-yl]formamidol}-N-cyclobutyl-5-(3,3-difluoropiperidin-1-yl)pentanamide]
1160 | O=C(O)C[C@H](CCN1CC[C@@H](F)C1)NC(=O)c1cc(-c2ccccc2C(F)(F)F)n(C2CCCC2)n1 [compound 590, (3S)-3-({1-cyclopentyl-5-[2-(trifluoromethyl)phenyl]-1H-pyrazol-3-yl]formamido)-5-[(3R)-3-fluoropyrrolidin-1-yl]pentanoic acid]
17.5 | O=C(C[C@H](CCN1CCC(F)(F)CC1)NC(=O)c1cc(-c2ccccc2C(F)(F)F)n(C2CCCC2)n1)Nc1nccs1 [compound 430, (3S)-3-({1-cyclopentyl-5-[2-(trifluoromethyl)phenyl]-1H-pyrazol-3-yl}formamido)-5-(4,4-difluoropiperidin-1-yl)-N-(1,3-thiazol-2-yl)pentanamide]
3840 | Cc1cccc(C)c1-c1cc(C(=O)N[C@@H](CCN2CCCCC2)CC(=O)NC2CCC2)nn1C1CCCC1 [compound 371, (3S)-N-cyclobutyl-3-{[1-cyclopentyl-5-(2,6-dimethylphenyl)-1H-pyrazol-3-yl]formamido}-5-(piperidin-1-yl)pentanamide]
36 | CCCN(CCC)CC[C@@H](CC(=O)NC1CCC1)NC(=O)c1cc(-c2ccccc2C(F)(F)F)n(C2CCCC2)n1 [compound 492, (3S)-N-cyclobutyl-3-({1-cyclopentyl-5-[2-(trifluoromethyl)phenyl]-1H-pyrazol-3-yl}formamido)-5-(dipropylamino)pentanamide]
1170 | CN(C(=O)[C@@H](CC(=O)O)NC(=O)c1cc(-c2ccccc2C(F)(F)F)n(C2CCCC2)n1)C1CCCCC1 [compound 558, (3R)-3-[cyclohexyl(methyl)carbamoyl]-3-({1-cyclopentyl-5-[2-(trifluoromethyl)phenyl]-1H-pyrazol-3-yl}formamido)propanoic acid]
84 | CN(C(=O)C[C@H](CCN1CCCC(F)(F)C1)NC(=O)c1cc(-c2ccccc2Cl)n(C2CCCC2)n1)c1nccs1 [compound 447, (3S)-3-{[5-(2-chlorophenyl)-1-cyclopentyl-1H-pyrazol-3-yl]formamido}-5-(3,3-difluoropiperidin-1-yl)-N-methyl-N-(1,3-thiazol-2-yl)pentanamide]
